Measurements reported in PubChem BioAssay (NCI).
Several values for one entry are separate records, joined by “and”; a condition that tells them apart may be missing. Equal values may be shown once.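 Step 1: Grow cells in 96-well plates. Step 2: Expose to compound for 48 hours at 5 concentrations. Step 3: Interpolate endpoints linearly; if unreached, use highest concentration. GI50: concentration for 50% inhibition of growth. TGI: concentration producing complete growth inhibition.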

Tests used:
Assay in all cases: growth of human tumour cells (NCI), 48 h
PC-3 prostate = test system: PC-3 prostate
SF-539 CNS = test system: SF-539 CNS
OVCAR-8 ovarian = test system: OVCAR-8 ovarian
SNB-19 CNS = test system: SNB-19 CNS
DU-145 prostate = test system: DU-145 prostate
SF-268 CNS = test system: SF-268 CNS
UACC-257 melanoma = test system: UACC-257 melanoma
UO-31 renal = test system: UO-31 renal
CAKI-1 renal = test system: CAKI-1 renal
HT29 colon = test system: HT29 colon
TK-10 renal = test system: TK-10 renal
SW-620 colon = test system: SW-620 colon
UACC-62 melanoma = test system: UACC-62 melanoma
RXF 393 renal = test system: RXF 393 renal
KM12 colon = test system: KM12 colon
OVCAR-4 ovarian = test system: OVCAR-4 ovarian
T-47D breast = test system: T-47D breast
MDA-MB-231 breast = test system: MDA-MB-231 breast
M14 melanoma = test system: M14 melanoma
CCRF-CEM leukemia = test system: CCRF-CEM leukemia
HS 578T breast = test system: HS 578T breast
HL-60(TB) leukemia = test system: HL-60(TB) leukemia
SF-295 CNS = test system: SF-295 CNS
IGROV1 ovarian = test system: IGROV1 ovarian
HCT-116 colon = test system: HCT-116 colon
COLO 205 colon = test system: COLO 205 colon
MOLT-4 leukemia = test system: MOLT-4 leukemia
K-562 leukemia = test system: K-562 leukemia
MALME-3M melanoma = test system: MALME-3M melanoma
MDA-MB-435 = test system: MDA-MB-435
BT-549 breast = test system: BT-549 breast
LOX IMVI melanoma = test system: LOX IMVI melanoma
786-0 renal = test system: 786-0 renal
ACHN renal = test system: ACHN renal
U251 CNS = test system: U251 CNS
A498 renal = test system: A498 renal
SN12C renal = test system: SN12C renal
SK-MEL-28 melanoma = test system: SK-MEL-28 melanoma
SK-OV-3 ovarian = test system: SK-OV-3 ovarian
SNB-75 CNS = test system: SNB-75 CNS
NCI-H460 lung = test system: NCI-H460 lung
MCF7 breast = test system: MCF7 breast
SK-MEL-2 melanoma = test system: SK-MEL-2 melanoma
SK-MEL-5 melanoma = test system: SK-MEL-5 melanoma
HOP-62 NSCLC = test system: HOP-62 NSCLC
HOP-92 NSCLC = test system: HOP-92 NSCLC
NCI-H226 lung = test system: NCI-H226 lung
NCI-H522 lung = test system: NCI-H522 lung
OVCAR-3 ovarian = test system: OVCAR-3 ovarian
EKVX NSCLC = test system: EKVX NSCLC
HCT-15 colon = test system: HCT-15 colon
A549 NSCLC = test system: A549 NSCLC

CCN(CC)CCCC(CO)Nc1ccnc2cc(Cl)ccc12 (centres undefined)
GI50 (PC-3 prostate): 66.2 µM and 34.4 µM
TGI (PC-3 prostate): > 100 µM
GI50 (SF-539 CNS): 15.9 µM and 17.3 µM
TGI (SF-539 CNS): 35.4 µM and 35.3 µM
GI50 (OVCAR-8 ovarian): 38.5 µM and 56.1 µM
TGI (OVCAR-8 ovarian): > 100 µM
GI50 (SNB-19 CNS): > 100 µM
TGI (SNB-19 CNS): > 100 µM
GI50 (DU-145 prostate): > 100 µM
TGI (DU-145 prostate): > 100 µM
GI50 (SF-268 CNS): 64.3 µM and 75.7 µM
TGI (SF-268 CNS): > 100 µM
GI50 (UACC-257 melanoma): 18.1 µM and 19.2 µM
TGI (UACC-257 melanoma): 33 µM and 35.2 µM
GI50 (UO-31 renal): > 100 µM
TGI (UO-31 renal): > 100 µM
GI50 (CAKI-1 renal): 32.7 µM and 30.7 µM
TGI (CAKI-1 renal): > 100 µM and 85.5 µM
GI50 (HT29 colon): 32.2 µM and 64.3 µM
TGI (HT29 colon): > 100 µM
GI50 (TK-10 renal): 46 µM and 32.4 µM
TGI (TK-10 renal): > 100 µM
GI50 (SW-620 colon): 50.6 µM and > 100 µM
TGI (SW-620 colon): > 100 µM
GI50 (UACC-62 melanoma): 22.2 µM and 37.7 µM
TGI (UACC-62 melanoma): 49.6 µM and > 100 µM
GI50 (RXF 393 renal): 35.8 µM and 41.1 µM
TGI (RXF 393 renal): > 100 µM
GI50 (KM12 colon): 49.1 µM and 66.8 µM
TGI (KM12 colon): > 100 µM
GI50 (OVCAR-4 ovarian): > 100 µM and 58.2 µM
TGI (OVCAR-4 ovarian): > 100 µM
GI50 (T-47D breast): > 100 µM
TGI (T-47D breast): > 100 µM
GI50 (MDA-MB-231 breast): 70.3 µM and 57.1 µM
TGI (MDA-MB-231 breast): > 100 µM
GI50 (M14 melanoma): 16.6 µM and 17 µM
TGI (M14 melanoma): 30.9 µM and 31.2 µM
GI50 (CCRF-CEM leukemia): 45.4 µM and 15 µM
TGI (CCRF-CEM leukemia): > 100 µM and 39.8 µM
GI50 (HS 578T breast): > 100 µM and 72.5 µM
TGI (HS 578T breast): > 100 µM
GI50 (HL-60(TB) leukemia): 24.4 µM and 25 µM
TGI (HL-60(TB) leukemia): > 100 µM
GI50 (SF-295 CNS): 18.9 µM and 18 µM
TGI (SF-295 CNS): 46.6 µM and 45.3 µM
GI50 (IGROV1 ovarian): > 100 µM
TGI (IGROV1 ovarian): > 100 µM
GI50 (HCT-116 colon): 21.9 µM and 26.3 µM
TGI (HCT-116 colon): 73.7 µM and 80.1 µM
GI50 (COLO 205 colon): 39.9 µM and 34.5 µM
TGI (COLO 205 colon): > 100 µM
GI50 (MOLT-4 leukemia): 31 µM and 34.3 µM
TGI (MOLT-4 leukemia): > 100 µM
GI50 (K-562 leukemia): 30.4 µM and 36.3 µM
TGI (K-562 leukemia): > 100 µM
GI50 (MALME-3M melanoma): 29.4 µM and 26.5 µM
TGI (MALME-3M melanoma): 59.1 µM and 49.9 µM
GI50 (MDA-MB-435): 19.5 µM and 20.5 µM
TGI (MDA-MB-435): 42.7 µM and 43.2 µM
GI50 (BT-549 breast): 33.8 µM and 30.8 µM
TGI (BT-549 breast): > 100 µM
GI50 (LOX IMVI melanoma): 30.1 µM and 27.6 µM
TGI (LOX IMVI melanoma): 59.6 µM and 51.5 µM
GI50 (786-0 renal): 54.9 µM and 42.3 µM
TGI (786-0 renal): > 100 µM
GI50 (ACHN renal): > 100 µM and 54.1 µM
TGI (ACHN renal): > 100 µM
GI50 (U251 CNS): 67.6 µM and 70.8 µM
TGI (U251 CNS): > 100 µM
GI50 (A498 renal): > 100 µM and 32.7 µM
TGI (A498 renal): > 100 µM
GI50 (SN12C renal): > 100 µM and 48.5 µM
TGI (SN12C renal): > 100 µM
GI50 (SK-MEL-28 melanoma): 25 µM and > 100 µM
TGI (SK-MEL-28 melanoma): 57.5 µM and > 100 µM
GI50 (SK-OV-3 ovarian): > 100 µM and 91.5 µM
TGI (SK-OV-3 ovarian): > 100 µM
GI50 (SNB-75 CNS): > 100 µM
TGI (SNB-75 CNS): > 100 µM
GI50 (NCI-H460 lung): 66.2 µM and 82.7 µM
TGI (NCI-H460 lung): > 100 µM
GI50 (MCF7 breast): 47.9 µM and 56.1 µM
TGI (MCF7 breast): > 100 µM
GI50 (SK-MEL-2 melanoma): > 100 µM and 90.2 µM
TGI (SK-MEL-2 melanoma): > 100 µM
GI50 (SK-MEL-5 melanoma): 20 µM and 18 µM
TGI (SK-MEL-5 melanoma): 44.8 µM and 37.6 µM
GI50 (HOP-62 NSCLC): 82.4 µM and 68.2 µM
TGI (HOP-62 NSCLC): > 100 µM
GI50 (HOP-92 NSCLC): 22.6 µM and 20.5 µM
TGI (HOP-92 NSCLC): > 100 µM and 88.5 µM
GI50 (NCI-H226 lung): > 100 µM and 36.5 µM
TGI (NCI-H226 lung): > 100 µM and 92.8 µM
GI50 (NCI-H522 lung): 56.9 µM and > 100 µM
TGI (NCI-H522 lung): > 100 µM
GI50 (OVCAR-3 ovarian): 28.3 µM and 32.6 µM
TGI (OVCAR-3 ovarian): 77.1 µM and > 100 µM
GI50 (EKVX NSCLC): 54.5 µM and 74.2 µM
TGI (EKVX NSCLC): > 100 µM
GI50 (HCT-15 colon): > 100 µM
TGI (HCT-15 colon): > 100 µM
GI50 (A549 NSCLC): 50.9 µM and 73.7 µM
TGI (A549 NSCLC): > 100 µM
